From PubChem BioAssay (NCI)
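Growth conditions: 96-well plates. Treatment: test compound, 48 hours, 5 concentrations. Analysis: linear interpolation between bracketing concentrations; unreached endpoints set to highest concentration. Here, GI50 denotes the concentration required for 50% inhibition of growth. TGI marks complete inhibition of growth.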

What was measured:
Test in all cases: inhibition of tumour cell growth, NCI panel, 48 h
[1] = system: NCI-H226 lung
[2] = system: SK-MEL-28 melanoma
[3] = system: HCT-15 colon
[4] = system: LOX IMVI melanoma
[5] = system: MOLT-4 leukemia
[6] = system: HCC-2998 colon
[7] = system: SK-MEL-2 melanoma
[8] = system: MALME-3M melanoma
[9] = system: HOP-62 NSCLC
[10] = system: 786-0 renal
[11] = system: HOP-92 NSCLC
[12] = system: NCI-H460 lung
[13] = system: SNB-75 CNS
[14] = system: HL-60(TB) leukemia

SMILES: COc1cc([C@@H]2c3cc4c(cc3[C@@H](Nc3ccccc3C(=O)c3ccccc3)[C@H]3COC(=O)[C@H]23)OCO4)cc(OC)c1OC
- TGI [1]: > 100 µM
- TGI [2]: > 100 µM
- TGI [3]: 1.18 µM
- TGI [4]: > 100 µM
- TGI [5]: > 100 µM
- TGI [6]: > 28.7 µM
- TGI [7]: > 100 µM
- TGI [8]: > 100 µM
- TGI [9]: > 100 µM
- TGI [10]: > 100 µM

SMILES: CC12CC3OC(=O)C1COC14OC5(C2C1=O)C(O)(CCC1C4CC2OC24CC=CC(=O)C14C)C(=O)OC35C (stereo not drawn)
- TGI [2]: 24.7 µM
- TGI [11]: 68.1 µM
- TGI [3]: 37.7 µM
- TGI [12]: > 100 µM
- TGI [4]: 29.5 µM
- TGI [5]: 66.9 µM
- TGI [13]: > 100 µM
- TGI [6]: 32.8 µM
- TGI [7]: 28.1 µM
- TGI [8]: 52.8 µM
- TGI [9]: 39.4 µM
- TGI [14]: 28.7 µM
- TGI [10]: 28.7 µM

SMILES: COc1cc(C2=NNC(=O)c3ccccc3N2c2nc(-c3cccs3)nc3ccc(Br)cc23)cc(OC)c1OC
- TGI [1]: > 100 µM
- TGI [2]: 32.3 µM
- TGI [11]: 27.7 µM
- TGI [3]: 24 µM
- TGI [12]: 14.2 µM
- TGI [13]: > 100 µM
- TGI [7]: > 100 µM
- TGI [8]: 59.1 µM
- TGI [9]: 59.2 µM
- TGI [10]: > 100 µM

SMILES: NNc1nncc2[nH]cnc12
- TGI [1]: > 100 µM
- TGI [2]: > 100 µM
- TGI [3]: > 100 µM
- TGI [12]: > 100 µM
- TGI [5]: > 100 µM
- TGI [13]: > 100 µM
- TGI [7]: > 100 µM
- TGI [9]: > 100 µM
- TGI [14]: > 100 µM
- TGI [10]: > 100 µM

SMILES: COc1ccc(/C=C2\CCS(=O)(=O)c3ccccc3C2=O)cc1OC
- TGI [1]: > 100 µM
- TGI [2]: > 100 µM
- TGI [11]: > 100 µM
- TGI [3]: 50.4 µM
- TGI [12]: 47 µM
- TGI [4]: 43.8 µM
- TGI [5]: > 100 µM
- TGI [13]: 98.4 µM
- TGI [6]: 44.1 µM
- TGI [7]: > 100 µM
- TGI [9]: > 100 µM
- TGI [14]: 70 µM
- TGI [10]: > 100 µM

SMILES: O=C(c1ccccc1)n1cc(-c2ccccc2)c2c(=O)[nH]cnc21
- TGI [1]: > 100 µM
- TGI [2]: > 100 µM
- TGI [11]: > 100 µM
- TGI [3]: > 100 µM
- TGI [4]: > 100 µM
- TGI [5]: > 100 µM
- TGI [13]: > 100 µM
- TGI [6]: > 100 µM
- TGI [7]: > 100 µM
- TGI [8]: > 100 µM
- TGI [9]: > 100 µM
- TGI [10]: > 100 µM

SMILES: O=C(CCCCCCCCC(=O)N1C(=O)CC(=O)N(c2ccccc2)C1=S)N1C(=O)CC(=O)N(c2ccccc2)C1=S
- TGI [11]: > 100 µM
- TGI [3]: > 100 µM
- TGI [12]: > 100 µM
- TGI [4]: > 100 µM
- TGI [5]: > 100 µM
- TGI [13]: > 100 µM
- TGI [6]: > 100 µM
- TGI [7]: > 100 µM
- TGI [8]: > 100 µM
- TGI [9]: > 100 µM
- TGI [10]: > 100 µM

SMILES: CCCCCc1nnc(NS(=O)(=O)c2ccc(NC(=O)OCC(C)C)cc2)s1
- TGI [2]: 95.5 µM
- TGI [11]: 77.3 µM
- TGI [3]: > 100 µM
- TGI [12]: > 100 µM
- TGI [4]: > 100 µM
- TGI [5]: 54 µM
- TGI [7]: 53.5 µM
- TGI [8]: 94.6 µM
- TGI [9]: > 100 µM
- TGI [14]: > 100 µM
- TGI [10]: > 100 µM

SMILES: COC(=O)[C@H]1NC(=O)CCSSC1(C)C
- TGI [1]: > 100 µM
- TGI [2]: > 100 µM
- TGI [11]: > 100 µM
- TGI [3]: > 100 µM
- TGI [4]: > 100 µM
- TGI [5]: > 100 µM
- TGI [7]: > 100 µM
- TGI [8]: > 100 µM
- TGI [9]: > 100 µM
- TGI [14]: > 100 µM
- TGI [10]: > 100 µM

SMILES: Cc1ccc(NC(=O)C(Cc2c[nH]c3ccccc23)NC(=O)Oc2ccccc2)cc1C (stereo not drawn)
- TGI [1]: > 100 µM
- TGI [2]: > 100 µM
- TGI [11]: > 100 µM
- TGI [3]: > 100 µM
- TGI [12]: > 100 µM
- TGI [4]: > 100 µM
- TGI [5]: > 100 µM
- TGI [7]: > 100 µM
- TGI [8]: 99.5 µM
- TGI [9]: > 100 µM
- TGI [14]: > 100 µM

SMILES: Cc1ccc2c(=O)c(C(=O)Nn3c(C)csc3=S)c[nH]c2n1
- TGI [1]: > 100 µM
- TGI [2]: > 100 µM
- TGI [3]: > 100 µM
- TGI [12]: > 100 µM
- TGI [4]: > 100 µM
- TGI [5]: > 100 µM
- TGI [7]: > 100 µM
- TGI [8]: > 100 µM
- TGI [9]: > 100 µM
- TGI [14]: > 100 µM
- TGI [10]: > 100 µM

SMILES: CCOP(=O)(OCC)C(c1ccccc1)N(C(=O)NC(F)(F)F)c1cccc(F)c1 (stereo not drawn)
- TGI [1]: > 100 µM
- TGI [2]: > 100 µM
- TGI [3]: > 100 µM
- TGI [12]: > 100 µM
- TGI [4]: > 100 µM
- TGI [5]: > 100 µM
- TGI [13]: > 100 µM
- TGI [6]: > 100 µM
- TGI [8]: > 100 µM
- TGI [9]: > 100 µM
- TGI [14]: > 100 µM
- TGI [10]: > 100 µM

SMILES: COc1ccc2c(c1)C/C(=C\c1cccc3ccccc13)C2=O
- TGI [1]: 59.7 µM
- TGI [2]: > 100 µM
- TGI [3]: > 100 µM
- TGI [12]: > 100 µM
- TGI [4]: > 100 µM
- TGI [5]: > 100 µM
- TGI [13]: > 100 µM
- TGI [6]: > 100 µM
- TGI [14]: > 100 µM
- TGI [10]: 77.7 µM

SMILES: Cc1cn(C2CC(N)C(C(=O)NCC(=O)O)O2)c(=O)[nH]c1=O (stereo not drawn)
- TGI [1]: > 100 µM
- TGI [2]: > 100 µM
- TGI [11]: > 100 µM
- TGI [3]: > 100 µM
- TGI [12]: > 100 µM
- TGI [4]: > 100 µM
- TGI [5]: > 100 µM
- TGI [13]: > 100 µM
- TGI [6]: > 100 µM
- TGI [8]: > 100 µM
- TGI [9]: > 100 µM
- TGI [14]: > 100 µM

SMILES: C[n+]1c(-c2ccc(/C=N/Nc3ccnc(N/N=C/c4ccc(-c5cn6ccsc6[n+]5C)cc4)n3)cc2)cn2ccsc21
- TGI [1]: 60.6 µM
- TGI [11]: > 100 µM
- TGI [3]: > 100 µM
- TGI [12]: 91.3 µM
- TGI [5]: 64.9 µM
- TGI [13]: 68.3 µM
- TGI [6]: > 100 µM
- TGI [7]: 85.9 µM
- TGI [8]: > 100 µM
- TGI [9]: 80.2 µM
- TGI [10]: 46.6 µM

SMILES: COc1cc(CNc2cnc3cc(N)ccc3n2)cc(OC)c1OC
- TGI [2]: > 100 µM
- TGI [11]: > 100 µM
- TGI [3]: > 100 µM
- TGI [12]: > 100 µM
- TGI [4]: > 100 µM
- TGI [5]: > 100 µM
- TGI [13]: > 100 µM
- TGI [6]: > 100 µM
- TGI [7]: 2.38 µM
- TGI [8]: > 100 µM
- TGI [9]: > 100 µM
- TGI [14]: 39.8 µM
- TGI [10]: > 100 µM

SMILES: O=C(CCCCCC(=O)N1CC(CCl)c2ccc([N+](=O)[O-])cc21)N1CC(CCl)c2ccc([N+](=O)[O-])cc21 (stereo not drawn)
- TGI [1]: > 100 µM
- TGI [11]: > 100 µM
- TGI [3]: > 100 µM
- TGI [12]: > 100 µM
- TGI [4]: > 100 µM
- TGI [5]: > 100 µM
- TGI [13]: > 100 µM
- TGI [6]: > 100 µM
- TGI [7]: > 100 µM
- TGI [9]: > 100 µM
- TGI [14]: > 100 µM
- TGI [10]: > 100 µM

SMILES: CN(CCO)CCCC1COc2ccccc2O1 (stereo not drawn)
- TGI [1]: > 100 µM
- TGI [2]: > 100 µM
- TGI [11]: > 100 µM
- TGI [3]: > 100 µM
- TGI [12]: > 100 µM
- TGI [5]: > 100 µM
- TGI [13]: > 100 µM
- TGI [6]: > 100 µM
- TGI [8]: > 100 µM
- TGI [9]: > 100 µM
- TGI [14]: > 100 µM
- TGI [10]: > 100 µM

SMILES: COc1ccc(-c2ccc(-c3ccc(C(=N)N)nc3)s2)cc1Cl
- GI50 [11]: 1.63 µM
- TGI [11]: 3.41 µM
- GI50 [12]: 1.8 µM
- TGI [12]: 3.36 µM
- GI50 [13]: 1.43 µM
- TGI [13]: 2.8 µM
- GI50 [8]: 1.78 µM
- TGI [8]: 3.32 µM
